Source: publication PMC4274051 (Nature, 2013)

Molecular target: K-Ras(G12C) (Homo sapiens, UniProt P01116, G12C)
Test: disulphide tethering, intact protein mass spectrometry
Assay type: binding

K-Ras(G12C), sequence (P01116 1-169 isoform P01116-2 G12C): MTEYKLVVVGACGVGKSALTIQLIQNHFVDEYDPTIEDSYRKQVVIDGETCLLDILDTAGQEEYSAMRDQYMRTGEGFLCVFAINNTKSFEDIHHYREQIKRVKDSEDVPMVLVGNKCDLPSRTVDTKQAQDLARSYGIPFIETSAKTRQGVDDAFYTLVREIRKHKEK

- % modification: 94 ± 1 % modification
SMILES: CN(C)CCSSCCNC(=O)C1CCN(C(=O)CSc2ccc(Cl)cc2)CC1 [6H05]
